Measured values reported in ChEMBL document CHEMBL5136980, “Indoleamine 2,3-dioxygenase 1 (IDO1) inhibitors and PROTAC-based degraders for cancer therapy” (Eur J Med Chem, 2022).

Legend:
Homo sapiens = organism: Homo sapiens; experiment: Ratio of IC50 for IDO1 (unknown origin) to IC50 for IDO1 in human HeLa cells; format: cell-based
[1] = target: T1, Indoleamine 2,3-dioxygenase 1 (Homo sapiens, UniProt P14902); experiment: Inhibition of IDO1 (unknown origin)
[2] = target: T1, Indoleamine 2,3-dioxygenase 1; experiment: Inhibition of IDO1 in IFN-gamma stimulated human HeLa cells in presence of heme measured after 20 hrs by heme-competitive binding assay; format: cell-based
[3] = Oral bioavailability in ICR mouse 30 mg/kg measured after 0.0833 to 24 hrs by liquid chromatography/tandem mass spectrometric analysis; format: ADME, organism-based; settings: in vivo, time 0.0833-24 hrs
Ehrlich = experiment: Antitumor activity against mouse Ehrlich ascites carcinoma allografted in Swiss albino mouse assessed tumor growth inhibition by measuring CD8+ T cells relative to control; format: functional
[4] = target: T2, Protein cereblon/Indoleamine 2,3-dioxygenase 1 (Homo sapiens, UniProt P14902+Q96SW2); experiment: Protac activity at CRBN/IDO1 in human HeLa cells assessed as IDO1 protein degradation relative to control; format: cell-based
Target sequence in this assay (P14902 whole entry, looked up): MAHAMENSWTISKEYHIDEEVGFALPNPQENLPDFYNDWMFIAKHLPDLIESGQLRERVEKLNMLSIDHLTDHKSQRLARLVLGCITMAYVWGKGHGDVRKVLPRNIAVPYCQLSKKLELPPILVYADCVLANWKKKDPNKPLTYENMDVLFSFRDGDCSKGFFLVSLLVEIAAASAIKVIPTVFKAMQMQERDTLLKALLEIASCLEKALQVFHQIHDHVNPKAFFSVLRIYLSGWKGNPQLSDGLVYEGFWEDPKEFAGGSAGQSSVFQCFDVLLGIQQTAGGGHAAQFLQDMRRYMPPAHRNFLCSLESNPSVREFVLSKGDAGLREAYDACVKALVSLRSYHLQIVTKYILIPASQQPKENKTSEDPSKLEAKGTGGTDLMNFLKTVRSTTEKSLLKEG
Target sequence in this assay (Q96SW2 whole entry, looked up): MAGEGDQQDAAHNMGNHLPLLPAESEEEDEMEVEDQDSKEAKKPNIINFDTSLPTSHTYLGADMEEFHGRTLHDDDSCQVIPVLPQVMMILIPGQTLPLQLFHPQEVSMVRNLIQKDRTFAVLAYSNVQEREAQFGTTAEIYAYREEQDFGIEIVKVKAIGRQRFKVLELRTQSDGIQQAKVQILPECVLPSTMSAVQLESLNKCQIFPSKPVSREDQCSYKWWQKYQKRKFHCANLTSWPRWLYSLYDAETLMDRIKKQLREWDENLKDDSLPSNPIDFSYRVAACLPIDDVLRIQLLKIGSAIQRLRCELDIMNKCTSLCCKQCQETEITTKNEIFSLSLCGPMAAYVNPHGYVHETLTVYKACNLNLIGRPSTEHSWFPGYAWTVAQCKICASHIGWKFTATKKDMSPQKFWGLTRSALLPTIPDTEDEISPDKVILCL

HeLa = experiment: Cytotoxicity against human HeLa cells assessed as cell viability incubated for 48 hrs by MTT assay; format: functional, cell-based
[5] = target: T2, Protein cereblon/Indoleamine 2,3-dioxygenase 1; experiment: Protac activity at CRBN/IDO1 in human HeLa cells assessed as IDO1 protein degradation; format: cell-based
Target sequence in this assay (P14902 whole entry): as the sequence (P14902 whole entry, looked up) above
Target sequence in this assay (Q96SW2 whole entry): as the sequence (Q96SW2 whole entry, looked up) above

[6] = target: T1, Indoleamine 2,3-dioxygenase 1; experiment: Inhibition of IDO1 (unknown origin) using L-tryptophan incubated for 30 mins by microplate reader method

T1 sequence (P14902 whole entry): as the sequence (P14902 whole entry, looked up) above

SMILES | IC50 [1] [nM] | also measured
Clc1ccc(Nc2cn[nH]n2)cc1 | – | Ratio IC50 (Homo sapiens): > 500
C[C@@H](NS(=O)(=O)c1cccc(Cl)c1)[C@H]1CC[C@@H](c2ccnc3ccc(F)cc32)CC1 | < 50 | –
OC1CCC(C(F)(F)CC2c3c(F)cccc3-c3cncn32)CC1 (configuration not stated) | < 100 | –
CCC(C(=O)Nc1ccc(Cl)cc1)[C@H]1CC[C@H](Oc2ccnc3ccccc23)CC1 (some centres not stated) | > 50 | –
C[C@@H](NC(=O)c1ccc(Cl)cc1)[C@H]1CC[C@@H](c2ccnc3ccc(F)cc32)CC1 | < 50 | –
O[C@@H](C[C@H]1c2ccccc2-c2cncn21)c1cc2ccoc2cc1F | < 200 | –
Cn1cc(-c2cc(F)c(NC(=O)NCC3c4ccccc4-c4cncn43)cc2F)cn1 (configuration not stated) | 16 | –
O=C(Nc1ccc(Cl)cc1)N[C@H]1CC[C@H](c2ccnc3ccc(F)cc32)CC1 | < 50 | –
C[C@@H](C(=O)Nc1ccc(C#N)cc1)[C@H]1CC[C@@H](c2ccnc3ccc(F)cc32)CC1 | – | IC50 [2]: < 100 nM
O=S(=O)(NCCCOc1ccccc1-c1c[nH]cn1)C(F)(F)F | – | bioavailability [3]: 96%
O/N=C(/CCC1CCCCC1)Nc1cccc(Cl)c1 | < 1 | –
O=S(=O)(Nc1cccc2cnccc12)c1ccc2c(c1)OCCO2 | > 50 | –
COC1CN(CCNc2nc3c(F)c(F)cc(/C(=N/O)Nc4cccc(Br)c4)c3[nH]2)C1 | 111 | –
Cn1cc(-c2ccc(NC(=O)N3CCC(C(=O)/C(=N/O)Nc4ccc(F)c(Br)c4)CC3)cc2)cn1 | 4 | –
NC(=O)c1n[nH]nc1-c1ccc(F)c(F)c1 | – | TGI (Ehrlich): 96%
CC(C)Oc1ccc(S(=O)(=O)NC2CCCc3cnccc32)cc1 (configuration not stated) | < 50 | –
O=C1CCC(N2C(=O)c3cccc(NCCOCCOCCOCCOCCOCCOCCOCCNCCNc4nonc4/C(=N/O)Nc4cccc(Br)c4)c3C2=O)C(=O)N1 (configuration not stated) | 1070 | Emax [4]: 93%; IC50 (HeLa): 37400 nM; DC50 [5]: 2840 nM
OC(CC1c2cc(F)ncc2-c2cncn21)C1CCCCC1 (configuration not stated) | < 100 | –
CC1=CCC[C@@H](C)[C@]1(C)C[C@]1(C)[C@@H](O)CC[C@]2(C)[C@@]3(C)CC[C@]4(C)c5c(C(O)C(=O)O)ccc(O)c5C[C@H]4[C@]3(C)CC[C@]21C (some centres not stated) | – | IC50 [6]: 240 nM
CC(C(=O)Nc1ccc(Cl)cc1)N1CCC(Oc2ccnc3ccc(F)cc23)CC1 (configuration not stated) | > 50 | –
Nc1nonc1/C(=N/O)N1Cc2ccccc2C1 | 1.57 | –
CC(C(=O)Nc1ccc(Cl)cc1)C1CCC(c2ccnc(C(F)(F)F)c2)CC1 (configuration not stated) | < 50 | –
N#Cc1ccc(NC(=O)NCC2c3ccccc3-c3cncn32)cc1 (configuration not stated) | < 50 | –
CC(C(=O)Nc1ccc(Cl)cc1)[C@H]1CC[C@H](Oc2ccnc(C(F)(F)F)c2)CC1 (some centres not stated) | > 250 | –
